Measured values from patent publication US20250186386A1, “METHODS OF REDUCING THE NEED FOR PERIPHERAL ARTERIAL REVASCULARIZATION IN A STATIN-TREATED SUBJECT” (AMARIN PHARMACEUTICALS IRELAND LIMITED, priority 2018, published 2025).
Where two headings read alike, the source gives them in different places.

Columns and labels:
[1] = system: hypertriglyceridemic patients with cardiovascular disease or at high risk for cardiovascular disease, on statin therapy; type: in vivo, human
Text: The following study, also referred to as the REDUCE-IT clinical trial, was a large cardiovascular (CV) outcome trial designed to assess CV risk reduction benefit of AMR101 treatment (commercially known as VASCEPA®) versus placebo on the 5-point primary composite endpoint: CV death, non-fatal stroke, non-fatal myocardial infarction (MI), coronary revascularizations, or unstable angina requiring hospitalization.
A multi-center, prospective, randomized, double-blind, placebo-controlled, parallel-group study was performed to evaluate the effect of AMR101 (4 g per day) on cardiovascular health and mortality in hypertriglyceridemic patients with cardiovascular disease or at high risk for cardiovascular disease. The intended expanded indication of the study was treatment with AMR101 as an add-on to statin therapy to reduce the risk of cardiovascular events in patients with clinical cardiovascular disease or with multiple risk factors for cardiovascular disease.
The primary objective of this study was, in patients at LDL-C goal while on statin therapy, with established cardiovascular disease (CVD) or at high risk for CVD, and hypertriglyceridemia (e.g., fasting triglycerides (TG)≥200 mg/dL and <500 mg/dL), to evaluate the effect of AMR101 4 g daily on time from randomization to first occurrence of any component of the composite of the following major CV events: CV death; nonfatal MI; (including silent MI; electrocardiograms (ECGs) were performed annually for the detection of silent MIs); nonfatal stroke; coronary revascularization; and unstable angina determined to be caused by myocardial ischemia by invasive/non-invasive testing and requiring emergent hospitalization.
The key secondary objective of this study was to evaluate the effect of AMR101 4 g daily on the time from randomization to the first occurrence of the composite of following major CV events: CV death, nonfatal MI (including silent MI), and nonfatal stroke.
Other secondary objectives for this study were to evaluate the effect of therapy on time from randomization to the first occurrence of the following individual or composite endpoints: composite of CV death or nonfatal MI (including silent MI); fatal or nonfatal MI (including silent MI); non-elective coronary revascularization represented as the composite of emergent or urgent classifications; CV death; unstable angina determined to be caused by myocardial ischemia by invasive/non-invasive testing and requiring emergent hospitalization; fatal or nonfatal stroke; composite of total mortality, nonfatal MI (including silent MI), or nonfatal stroke; and total mortality.
Primary Efficacy Endpoint: The primary efficacy endpoint was time from randomization to the first occurrence of the composite of the following clinical events: CV death; nonfatal MI (including silent MI; ECGs were performed annually for the detection of silent MIs); nonfatal stroke; coronary revascularization; and unstable angina determined to be caused by myocardial ischemia by invasive/non-invasive testing and requiring emergent hospitalization. The first occurrence of any of these major adverse vascular events during the follow-up period of the study were included in the incidence.
Secondary Efficacy Endpoints: The key secondary efficacy endpoint was the time from randomization to the first occurrence of the composite of CV death, nonfatal MI (including silent MI), or nonfatal stroke. […]

[2] = system: Lipid, lipoprotein, and inflammatory markers (TG, non-HDL-C, LDL-C, HDL-C, Apo B, hsCRP); test: REDUCE-IT: fasting lipid profile and biomarker assays (lipid, lipoprotein, and inflammatory markers) over time; type: in vivo, human
Protocol: Fasting Lipid Profile: The fasting lipid panel included: TG, TC, LDL-C, HDL-C, non-HDL-C, and VLDL-C. At all visits, LDL-C was calculated using the Friedewald equation. At Visit 1 and Visit 1.1 direct LDL-C were used if at the same visit TG>400 mg/dL (4.52 mmol/L). These LDL-C values were used for the evaluation of the LDL-C inclusion criterion (LDL-C qualifying measurements for randomization) and for the assessment of changes in the statin therapy when LDL-C was not at goal. […] In addition, irrespective of the TG levels, at Visit 2 (0 Months of Follow-up, baseline) and at Visit 4 (12 Months of Follow-up), LDL-C were measured by preparative ultracentrifugation. These preparative ultracentrifugation LDL-C measurements were used in the statistical analysis including the calculation of the percent change from baseline (1 year versus baseline). Hopkins LDL-C was calculated for each visit.
Biomarkers Assays: The biomarker assays included: hsCRP, Apo B and hsTnT.
The fasting lipid panel was tested at Screening (Visit 1 or Visit 1.1), Randomization visit (Visit 2; Day 0), Visit 3 (Day 120; ˜4 Months) and all other follow-up visits including the last visit. For change from baseline to 1 year preparative ultracentrifugation measurements for LDL-C were analyzed, unless this value was missing. If the LDL-C preparative ultracentrifugation values were missing, then another LDL-C value was used, with prioritization of values obtained from LDL-C Direct measurements, followed by LDL-C derived by the Friedewald calculation (only for subjects with TG<400 mg/dL), and finally LDL-C derived using the calculation published by Hopkins University investigators (Martin S S, Blaha M J, Elshazly M B, et al. Comparison of a novel method vs the Friedewald equation for estimating low-density lipoprotein cholesterol levels from the standard lipid profile. JAMA. 2013; 310:2061-8). In addition, change from baseline to day 120 in LDL-C utilizing Friedewald's and Hopkins methods was analyzed, using the arithmetic mean of LDL-C obtained at Visit 2 (Day 0) and the preceding Visit 1 (or Visit 1.1). If one of these values was missing, the single available LDL-C value was used. LDL-C according to Hopkins was calculated at each visit.
The randomization visit was considered Baseline. If a baseline value was not available from the randomization visit, then the latest screening value was used. For measurements of lipids, lipoproteins and inflammatory markers, the change and the percent change were summarized at each visit. Since these biomarkers are typically not normally distributed, the Wilcoxon rank-sum test was used for treatment comparisons of the percent change from baseline, and medians and quartiles were provided for each treatment group. The medians of the differences between the treatment groups and 95% CIs were estimated with the Hodges-Lehmann method. In addition, shift-tables were generated as appropriate.

[3] = REDUCE-IT: serious bleeding treatment-emergent adverse events (adverse events of special interest); type: in vivo, human; conditions: Safety population
Protocol: Adverse Events of Special Interest: Bleeding-related adverse events, glucose control (fasting blood glucose and HbA1c), and indicators of hepatic disorders (e.g., ALT or AST increases >3×ULN, total bilirubin increases of ≥2×ULN) were summarized separately and compared between treatment groups.
(§1) Analysis of Safety: All analyses of safety were conducted on the safety population, which was defined as all randomized patients. The safety assessment was based on the frequency of adverse events, physical exams, vital signs and safety laboratory tests. AEs with new onset during the study between the initiation of study drug and 30 days after the last dose of study drug for each patient was considered treatment-emergent (TEAEs). This included any AE with onset prior to initiation of study drug and increased severity after the treatment initiation.
This included overall incidence rates (regardless of severity and relationship to study drug), and incidence rates for moderate or severe adverse events. A summary of SAEs and adverse events leading to early discontinuation (for 30 days) were presented through data listings. Patients who restarted study drug were included in the summary of AEs leading to discontinuation. Safety laboratory tests and vital signs were summarized by post-treatment change from baseline for each of the parameters using descriptive statistics by treatment group. […]

[4] = REDUCE-IT: treatment-emergent adverse events of the safety population
Protocol: Specification of Variables and Procedures: Safety assessments included adverse events, clinical laboratory measurements (chemistry, hematology), 12-lead ECGs, vital signs (systolic and diastolic blood pressure, heart rate, respiratory rate, and body temperature), weight, waist circumference, and physical examinations as per Study Procedures in Table 1. […] All laboratory test results were evaluated by the investigator as to their clinical significance. Any observations at physical examinations or laboratory values considered by the investigator to be clinically significant were considered an adverse event.
An adverse event can therefore be any unfavorable and/or unintended sign (including an abnormal laboratory finding), symptom, or disease temporally associated with the use of an investigational medication product, whether or not related to the investigational medication product. All adverse events, including observed or volunteered problems, complaints, or symptoms, were recorded on the appropriate CRF. Each adverse event was evaluated for duration, intensity, and causal relationship with the study medication or other factors.
Serious Adverse Events: A serious adverse event (SAE) is defined as an adverse event that meets any of the following criteria: • Results in death; • Is life-threatening—The term “life-threatening” in the definition of “serious” refers to an event in which the patient was at risk of death at the time of the event. […] Important medical events that may not result in death, be life threatening, or require hospitalization were considered an SAE when, based upon appropriate medical judgment, they may have jeopardized the patient and may have required medical or surgical intervention to prevent one of the outcomes listed above.
as §1
This included overall incidence rates (regardless of severity and relationship to study drug), and incidence rates for moderate or severe adverse events. A summary of SAEs and adverse events leading to early discontinuation (for 30 days) were presented through data listings. Patients who restarted study drug were included in the summary of AEs leading to discontinuation. Safety laboratory tests and vital signs were summarized by post-treatment change from baseline for each of the parameters using descriptive statistics by treatment group. Those patients with significant laboratory abnormalities were identified in data listings. Additional safety parameters were summarized in data listings.
In addition to the treatment-emergent adverse events analyses, analyses on all AEs (serious and non-serious) and all serious AEs were performed.

What does the source list for `CC/C=C\C/C=C\C/C=C\C/C=C\C/C=C\CCCC(=O)OCC` [AMR101, icosapent ethyl]?
Key secondary composite endpoint absolute between-group difference in the rate of the endpoint ([1]; 2 g twice daily vs placebo): 3.6 percentage points; Primary composite endpoint absolute between-group difference in the rate of the endpoint ([1]; 2 g twice daily vs placebo): 4.8 percentage points; Cardiovascular death, % of patients ([1]; 4 g daily, ITT): 4.3%; Total mortality, % of patients ([1]; 4 g daily, ITT): 6.7%; Amputation for PVD (%) ([1]; ITT): (0.5%); Cardiac Arrest (%) ([1]; ITT): (0.5%); Cardiac Arrhythmias Requiring Hospitalization of ≥24 Hours (%) ([1]; ITT): (4.6%); Carotid Revascularization (%) ([1]; ITT): (0.8%); Coronary Revascularization (%) ([1]; ITT): (9.2%); Elective Revascularization (%) ([1]; ITT): (4.7%); Emergent Revascularization (%) ([1]; ITT): (1.0%); Hemorrhagic Stroke (%) ([1]; ITT): 0.3%; Ischemic Stroke (%) ([1]; ITT): (2.0%); New Heart Failure (%) ([1]; ITT): 4.1%; New Heart Failure Requiring Hospitalization (%) ([1]; ITT): (3.4%); Salvage Revascularization (%) ([1]; ITT): (0.0%); Sudden Cardiac Death (%) ([1]; ITT): (1.5%); Transient Ischemic Attack (%) ([1]; ITT): (1.6%); Urgent Revascularization (%) ([1]; ITT): (4.4%); Hemorrhagic Stroke (%) ([1]; ITT, listed as Icosapent Ethyl): (0.3%); New Heart Failure (%) ([1]; ITT, listed as Icosapent Ethyl): (4.1%); Atrial fibrillation or flutter requiring hospitalization (adjudicated tertiary endpoint), % of patients ([1]; human, in vivo): 3.1%; New Onset of Diabetes (%) ([1]; patients with diabetes at baseline excluded): (3.8%); Composite of cardiovascular death or nonfatal myocardial infarction RRR ([1]; vs placebo, 4 g per day): 25%; Composite of total mortality, nonfatal myocardial infarction, or nonfatal stroke reduction (RRR) ([1]; vs placebo, 4 g per day): 23%; Key secondary composite endpoint relative risk reduction (RRR) ([1]; vs placebo, 4 g per day): 26%; Primary composite endpoint relative risk reduction (RRR) ([1]; vs placebo, 4 g per day): 25%; Reduction in heart attack ([1]; vs placebo, 4 g per day): 31%; Total mortality reduction (RRR) ([1]; vs placebo, 4 g per day): 13%; Total mortality HR ([1]; vs placebo, ITT): 0.87; Primary composite endpoint number needed to treat (NNT) ([1]; vs placebo, median follow up 4.9 years): 21; HDL-C Median Year 1 ([2]; Year 1, Table 18): 39.0 mg/dL; LDL-C Median Year 1 ([2]; Year 1, Table 18): 77.0 mg/dL; Non-HDL-C Median Year 1 ([2]; Year 1, Table 18): 113.0 mg/dL; Triglycerides Median Year 1 ([2]; Year 1, Table 18): 175.0 mg/dL; Triglycerides: median reduction from baseline greater than in the placebo group (Hodges-Lehmann) ([2]; baseline to one year, vs placebo): 19.7%; HDL-C Median Between Group Difference at Year 1, % Change from Baseline ([2]; vs placebo, Table 18): −6.3%; HDL-C Median Between Group Difference at Year 1, Absolute Change from Baseline ([2]; vs placebo, Table 18): -2.5 mg/dL; LDL-C Median Between Group Difference at Year 1, % Change from Baseline ([2]; vs placebo, Table 18): −6.6%; LDL-C Median Between Group Difference at Year 1, Absolute Change from Baseline ([2]; vs placebo, Table 18): -5.0 mg/dL; Non-HDL-C Median Between Group Difference at Year 1, Absolute Change from Baseline ([2]; vs placebo, Table 18): -15.5 mg/dL; Triglycerides Median Between Group Difference at Year 1, % Change from Baseline ([2]; vs placebo, Table 18): −19.7%; Triglycerides Median Between Group Difference at Year 1, Absolute Change from Baseline ([2]; vs placebo, Table 18): -44.5 mg/dL; Serious gastrointestinal bleeding, rate [3]: 1.5%; Pneumonia (serious adverse event), rate ([4]; Safety population): 2.6%; Rate of anemia (adverse event) ([4]; Safety population): 4.7%; Rate of atrial fibrillation (adverse event) ([4]; Safety population): 5.3%; Rate of diarrhea (adverse event) ([4]; Safety population): 9%; Rate of gastrointestinal adverse events ([4]; Safety population): 33.0%; Rate of peripheral edema (adverse event) ([4]; Safety population): 6.5%; Serious TEAE Leading to Death, % ([4]; […]): (2.3%); Serious TEAE, % ([4]; […]): (30.6%); Subjects with at Least One TEAE, % ([4]; […]): (81.8%)
